# Experimental data: publication PMC6677754, “In silico design and optimization of selective membranolytic anticancer peptides” (Scientific Reports, 2019)
# Where two headings read alike, the source gives them in different places. Peptide text beside a SMILES is read from it.
# Assays:
# [1] = system: MCF7 breast adenocarcinoma cell line; assay: Cell viability assay (MTT); type: cell-based, human; conditions: 10^4 cells per well, 24 h with peptide, 2-fold dilution series from 100 µM in DMEM, absorbance 540 nm, mean ± std, N = 3
# Experimental: (§1) 10% fetal bovine serum and 1% penicillin-streptomycin (Thermo Fisher Scientific, Waltham, MA, USA). The cultures were kept at 37°C in a 5% CO2 atmosphere incubator (Thermo Fisher Scientific, Waltham, MA, USA) and split every two to three days to new culture flasks. Cells no older than 20 passages were used for experiments.
# (§2) For splitting, the cell culture media was aspirated, the cells were washed with 0.01 M phosphate buffered saline (PBS, Gibco, Thermo Fisher Scientific, Waltham, MA, USA) and trypsin-EDTA (trypsin - ethylene diamine tetraacetic acid, Fisher scientific, UK) was added to the cell layer to detach them from the flask surface. After incubation for 2 min at 37°C, cells were resuspended with an equal volume of DMEM media and centrifuged at 310 g for 5 min at 4°C. After removal of the supernatant the cells were resuspended in DMEM cell media and split into new cell culture flasks at a 1/3 to 1/5 ratio.
# (§3) Determination of the anticancer peptides half effective concentration (EC50) was performed by a 3-(4,5-dimethylthiazol-2-yl)-2,5-diphenyltetrazolium bromide (MTT) assay, as described elsewhere21. Briefly, […] were seeded in each well of a 96-well plate and left to adhere and […]
# (§4) sulfoxide (DMSO, Fisher Scientific, UK) at an intermediate concentration of 1 mM. The peptides were then diluted in a 2-fold dilution series starting at 100 μM with DMEM culture media. Cells were incubated with the peptide solutions for 24 h. After this time, the cell media was removed and the cells were incubated for 1 h with a 0.5 mg mL−1 MTT solution to allow enough time for formazan crystal formation (Sigma Aldrich, Steinheim, Germany). The supernatant was removed and 100 μL of DMSO were added into each well to resuspend the formazan crystals.
# (§5) After manually shaking the plates to completely dissolve the crystals, the absorbance was measured at 540 nm in a Tecan Infinity M1000 spectrophotometer. The cell viability was determined based on the quantification of the color intensity in each culture well, considering the absorbance obtained by the control media without peptides as a 100% survival. The resultant sigmoidal curves were analyzed with the drc22 R package using a log-logistic model
# [2] = system: A549 lung adenocarcinoma cell line; assay: Cell viability assay (MTT); type: cell-based, human
# Experimental: as §1, §2, §3, §4, §5
# [3] = MTT, 10^4 cells per well, 24 h with peptide, 2-fold dilution series from 100 µM in DMEM, absorbance 540 nm, mean ± std, N = 3, read-out: A549 EC50/µM
SMILES,EC50 [1],"EC50 [2, 3]","EC50 ([2]; Fig. S11, experimental replicate 1 (top panel), fit value (error in brackets), N = 6 technical replicates, MTT 24 h, read-out: EC50)","EC50 ([2]; Fig. S11, experimental replicate 2 (middle panel), fit value (error in brackets), N = 6 technical replicates, MTT 24 h, read-out: EC50)","EC50 ([2]; Fig. S11, experimental replicate 3 (bottom panel), fit value (error in brackets), N = 6 technical replicates, MTT 24 h, read-out: EC50)"
CC[C@H](C)[C@H](NC(=O)[C@H](CO)NC(=O)[C@H](CCC(N)=O)NC(=O)[C@H](CC(C)C)NC(=O)[C@H](CCCNC(=N)N)NC(=O)[C@H](CCCCN)NC(=O)[C@H](CCCNC(=N)N)NC(=O)[C@H](CC(C)C)NC(=O)CNC(=O)[C@H](CC(N)=O)NC(=O)[C@H](CCC(=O)O)NC(=O)[C@@H](NC(=O)[C@@H](N)CCCNC(=N)N)[C@@H](C)CC)C(=O)N[C@@H](Cc1ccc(O)cc1)C(=O)N[C@@H](CCCNC(=N)N)C(=O)N[C@@H](Cc1c[nH]cn1)C(=O)N[C@@H](CC(C)C)C(=O)N[C@@H](CCC(=O)O)C(=O)N[C@@H](CCC(=O)O)C(N)=O [AmphiArc4] (H-RIENGLRKRLQSIYRHLEE-NH2; N-terminus assumed),> 50 µM,> 50 µM,,,
CC[C@H](C)[C@H](NC(=O)[C@H](CCCNC(=N)N)NC(=O)[C@H](CCCCN)NC(=O)[C@H](CC(C)C)NC(=O)[C@H](Cc1c[nH]c2ccccc12)NC(=O)[C@H](C)N)C(=O)N[C@@H](CCCCN)C(=O)N[C@@H](CCCCN)C(=O)N[C@@H](Cc1ccccc1)C(=O)N[C@@H](CC(C)C)C(=O)N[C@@H](CCCCN)C(=O)N[C@@H](C)C(=O)N[C@@H](CC(C)C)C(=O)N[C@@H](Cc1ccccc1)C(=O)N[C@@H](Cc1c[nH]c2ccccc12)C(=O)N[C@H](C(=O)N[C@@H](Cc1c[nH]c2ccccc12)C(=O)N[C@H](C(=O)N[C@@H](Cc1c[nH]c2ccccc12)C(N)=O)C(C)C)C(C)C [Gradient2] (H-AWLKRIKKFLKALFWVWVW-NH2),19 ± 1.8 µM,> 50 µM,107 µM,152 µM,487 µM
CC[C@H](C)[C@H](NC(=O)[C@@H](NC(=O)[C@H](CC(C)C)NC(=O)[C@@H](NC(=O)[C@H](CC(N)=O)NC(=O)[C@H](CCC(=O)O)NC(=O)[C@H](Cc1ccccc1)NC(=O)[C@H](CC(N)=O)NC(=O)[C@H](CC(=O)O)NC(=O)[C@@H](NC(=O)[C@@H](NC(=O)[C@@H](N)CCCCN)C(C)C)C(C)C)[C@@H](C)CC)[C@@H](C)CC)C(N)=O [Gradient3] (H-KVVDNFENILII-NH2; N-terminus assumed),> 50 µM,> 50 µM,,,
CC[C@H](C)[C@H](NC(=O)[C@@H](NC(=O)[C@H](CC(=O)O)NC(=O)[C@H](Cc1ccccc1)NC(=O)[C@H](CC(C)C)NC(=O)CN)C(C)C)C(=O)NCC(=O)N[C@@H](CO)C(=O)N[C@@H](CCC(N)=O)C(=O)N[C@@H](C)C(=O)NCC(=O)NCC(=O)N[C@@H](C)C(=O)N[C@@H](C)C(=O)N1CCC[C@H]1C(=O)N[C@@H](Cc1c[nH]cn1)C(=O)N[C@@H](Cc1ccccc1)C(=O)N[C@@H](CC(C)C)C(=O)NCC(N)=O [Helical4] (H-GLFDVIGSQAGGAAPHFLG-NH2; N-terminus assumed),> 50 µM,> 50 µM,,,
CC[C@H](C)[C@H](NC(=O)[C@H](Cc1ccc(O)cc1)NC(=O)[C@H](CC(N)=O)NC(=O)[C@H](CC(C)C)NC(=O)[C@H](CCC(=O)O)NC(=O)[C@H](CCC(=O)O)NC(=O)[C@H](CCCCN)NC(=O)[C@@H](NC(=O)[C@H](CO)NC(=O)[C@H](Cc1c[nH]cn1)NC(=O)[C@H](CCCNC(=N)N)NC(=O)[C@H](Cc1ccccc1)NC(=O)[C@H](C)N)C(C)C)C(=O)N[C@@H](CCCNC(=N)N)C(=O)N[C@@H](CCCNC(=N)N)C(=O)N[C@@H](CCCNC(=N)N)C(=O)N[C@@H](CC(C)C)C(=O)N[C@@H](CCC(=O)O)C(=O)N[C@@H](CCCNC(=N)N)C(=O)N[C@@H](Cc1ccccc1)C(=O)N1CCC[C@H]1C(=O)N[C@@H](CC(N)=O)C(=O)N[C@@H](CCCNC(=N)N)C(=O)N[C@@H](CC(C)C)C(N)=O [AmphiArc3] (H-AFRHSVKEELNYIRRRLERFPNRL-NH2; N-terminus assumed),> 50 µM,> 50 µM,,,
CC[C@H](C)[C@H](NC(=O)[C@H](Cc1c[nH]c2ccccc12)NC(=O)[C@@H](NC(=O)[C@H](CCCNC(=N)N)NC(=O)[C@@H](NC(=O)[C@H](Cc1c[nH]c2ccccc12)NC(=O)[C@@H](N)CCCCN)C(C)C)[C@@H](C)CC)C(=O)N[C@@H](CCCCN)C(=O)N[C@H](C(=O)N[C@@H](CC(C)C)C(=O)N[C@@H](CCCNC(=N)N)C(=O)NCC(=O)N[C@@H](CC(C)C)C(=O)N[C@@H](Cc1ccccc1)C(=O)N[C@H](C(=O)N[C@@H](Cc1c[nH]c2ccccc12)C(=O)N[C@H](C(=O)N[C@@H](Cc1c[nH]c2ccccc12)C(=O)N[C@@H](Cc1ccccc1)C(=O)N[C@@H](Cc1ccccc1)C(N)=O)C(C)C)C(C)C)C(C)C [Gradient1] (H-KWVRIWIKVLRGLFVWVWFF-NH2; N-terminus assumed),> 50 µM,> 50 µM,,,
CC[C@H](C)[C@H](NC(=O)[C@H](Cc1c[nH]c2ccccc12)NC(=O)[C@H](CCCNC(=N)N)NC(=O)[C@H](CCCNC(=N)N)NC(=O)[C@H](CC(C)C)NC(=O)[C@H](Cc1c[nH]c2ccccc12)NC(=O)[C@H](CC(N)=O)NC(=O)[C@H](Cc1c[nH]cn1)NC(=O)[C@@H](NC(=O)[C@H](CCCCN)NC(=O)[C@H](CCCCN)NC(=O)[C@@H](NC(=O)[C@H](Cc1c[nH]c2ccccc12)NC(=O)[C@@H](N)CCCCN)C(C)C)C(C)C)C(=O)N[C@@H](CCCCN)C(=O)N[C@H](C(=O)N[C@@H](Cc1ccccc1)C(=O)N[C@@H](CCC(=O)O)C(=O)N[C@@H](C)C(=O)N[C@@H](CC(C)C)C(=O)N[C@@H](Cc1ccccc1)C(=O)NCC(N)=O)C(C)C [AmphiArc1] (H-KWVKKVHNWLRRWIKVFEALFG-NH2),7 ± 0.5 µM,18.4 ± 0.7 µM,,,
CC[C@H](C)[C@H](NC(=O)[C@H](C)NC(=O)[C@H](Cc1c[nH]c2ccccc12)NC(=O)[C@H](CC(C)C)NC(=O)CN)C(=O)N[C@@H](C)C(=O)N[C@H](C(=O)N[C@@H](CCCCN)C(=O)N[C@@H](C)C(=O)NCC(=O)N[C@@H](CCCCN)C(=O)N[C@H](C(=O)N[C@H](C(=O)N[C@@H](CC(C)C)C(=O)N[C@@H](CCCCN)C(=O)N[C@@H](CC(C)C)C(=O)N[C@H](C(=O)N[C@H](C(=O)N[C@@H](Cc1ccccc1)C(=O)N[C@H](C(=O)N[C@@H](Cc1c[nH]c2ccccc12)C(=O)N[C@H](C(=O)N[C@@H](CCCNC(=N)N)C(=O)N[C@H](C(N)=O)C(C)C)[C@@H](C)CC)[C@@H](C)CC)C(C)C)[C@@H](C)CC)[C@@H](C)CC)C(C)C)C(C)C [Helical2] (H-GLWAIAVKAGKVILKLIVFIWIRV-NH2; N-terminus assumed),> 50 µM,> 50 µM,,,
CC[C@H](C)[C@H](NC(=O)[C@H](CC(N)=O)NC(=O)[C@@H]1CCCN1C(=O)[C@@H](NC(=O)[C@H](C)NC(=O)[C@H](C)NC(=O)[C@H](CC(N)=O)NC(=O)[C@@H](NC(=O)[C@@H](N)CCCNC(=N)N)C(C)C)[C@@H](C)CC)C(=O)N[C@H](C(=O)N[C@H](C(N)=O)C(C)C)[C@@H](C)CC [Gradient4] (H-RVNAAIPNIIV-NH2; N-terminus assumed),> 50 µM,> 50 µM,,,
CC[C@H](C)[C@H](NC(=O)[C@H](CC(=O)O)NC(=O)[C@H](CC(C)C)NC(=O)[C@H](CC(C)C)NC(=O)CN)C(=O)N[C@@H](C)C(=O)NCC(=O)NCC(=O)N[C@@H](CC(N)=O)C(=O)N[C@@H](C)C(=O)N[C@@H](CCC(=O)O)C(=O)N[C@H](C(=O)N[C@@H](CC(C)C)C(=O)N[C@@H](C)C(=O)NCC(=O)N[C@@H](Cc1c[nH]cn1)C(=O)N[C@@H](C)C(=O)N[C@H](C(N)=O)C(C)C)[C@@H](C)O [Helical3] (H-GLLDIAGGNAETLAGHAV-NH2; N-terminus assumed),> 50 µM,> 50 µM,,,
CC[C@H](C)[C@H](NC(=O)[C@H](CC(C)C)NC(=O)[C@H](CCCCN)NC(=O)[C@H](CC(C)C)NC(=O)[C@@H](NC(=O)[C@H](C)NC(=O)CNC(=O)[C@H](C)NC(=O)[C@H](CC(C)C)NC(=O)[C@H](CCCCN)NC(=O)CNC(=O)[C@H](CC(C)C)NC(=O)[C@H](CCCCN)NC(=O)[C@@H](NC(=O)[C@H](Cc1c[nH]c2ccccc12)NC(=O)[C@H](CC(C)C)NC(=O)[C@@H](N)Cc1ccccc1)[C@@H](C)CC)C(C)C)C(=O)N[C@@H](CC(C)C)C(=O)NCC(=O)N[C@@H](CC(C)C)C(=O)N[C@@H](CCCCN)C(=O)N[C@@H](CCCCN)C(=O)N[C@H](C(=O)N[C@H](C(N)=O)C(C)C)C(C)C [Helical1] (H-FLWIKLGKLAGAVLKLILGLKKVV-NH2),4.4 ± 1.3 µM,8.3 ± 2 µM,,,
